From a melting point compilation (Tetko et al.; mined from patent text by program, amines drawn as free bases though some values may be those of a salt)

| melting point | Structure (SMILES) |
| --- | --- |
| 139 °C | N#Cc1ncn2c(C(F)(F)F)cc(-c3ccc(Cl)cc3Cl)nc12 |
| 88 to 91 °C | O=C1N(Cc2cccc(OC(F)(F)F)c2)c2ccccc2C12COc1cc3c(cc12)OCO3 (stereo not drawn) |
| 131 to 133 °C | CN=C(SC)N(C)Cc1cc(C)nc(C)c1 |
| 159 °C | Cc1c(NC(=O)c2ccc(OC[C@@H]3CCCO3)cc2)ccc2cc(CNCC(C)C)[nH]c12 |
| 152 to 153 °C | N#CCCNC(=O)c1cccc(-c2ccc3c(c2)N(Cc2cc(Cl)ccc2Cl)CC3)c1 |
| 226 °C | O=C(Nc1nccs1)c1c(C(F)F)nc2c(C(F)(F)F)cccc2c1O |
| 158 to 161 °C | COc1ccc(COc2cccnc2NC(=N)Nc2ccc(Cl)cc2)c(F)c1 |
| 229 to 232 °C | O=C(O)C1CC(=O)N(c2ccccc2)C1c1cccnc1 (stereo not drawn) |
| 191 to 193 °C | O=C1Nc2cc(C(F)(F)F)cc(C(F)(F)F)c2C1(O)c1cc(Cl)ccc1O (stereo not drawn) |
| 114 to 116 °C | COc1cc2oc(=O)c3c(c2c(OC)c1OC)CCN(CC(C)=O)C3 |
| 93 to 96 °C | CN(C)CCNC(=O)c1ccc(-c2ccccc2CSCCOc2ccccc2)cc1 |
| 91 to 93 °C | Nc1ccccc1C(=O)NCCCCn1ccnc1 |
| 247 °C | CC(C)Nc1nc(C(=O)O)cn1C |
| 257 to 260 °C | CC1(C)OC(=O)Nc2ccc(-c3ccc(C#N)o3)cc21 |
| 86 to 88 °C | CC(=O)Oc1ccccc1C(=O)Oc1ccc(CO[N+](=O)[O-])cc1 |
| 97 to 99 °C | CCCc1ccc(C(=O)NCCc2cccs2)cc1 |
| 125 to 126 °C | c1ccc2cc(OCCCCCCCCOc3ccc4ccccc4c3)ccc2c1 |
| 159 to 160 °C | CCCc1nc2c(N)nc3cc(Cl)ccc3c2s1 |
| 205 to 220 °C | Cc1cc(-c2nc3cc(Cl)cc(CCc4ccccn4)c3o2)[nH]n1 |
| 207 to 211 °C | CC(c1oc2ccccc2c(=O)c1-c1cccc(F)c1)n1nc(-c2cncnc2)c2c(N)ncnc21 (stereo not drawn) |
| 112 °C | CC(=O)c1ccc2c(c1)Sc1ccccc1O2 |
| 292 to 293 °C | Cc1nc2ccccc2n1Cc1ccc(C(=O)O)c2ccccc12 |
| 97 to 98 °C | CC(C)=CC(=O)N1CC(c2ccccc2)c2ccccc21 (stereo not drawn) |
| 146 °C | O=S1(=O)CS(=O)(=O)OCO1 |
| 86 to 87 °C | CCOC(=O)C1NCCN(C(=O)OC(C)(C)C)C1=O (stereo not drawn) |

| melting point | Structure (SMILES) |
| --- | --- |
| 115 to 117 °C | CCC1c2cccn2-c2ccc(F)cc2N1C(=O)c1cccc(O)c1 (stereo not drawn) |
| 267 to 269 °C | Cc1ccc(Nc2nc(-c3c(-c4ccccc4)noc3C)cs2)nc1 |
| 191 to 195 °C | CCCC(NS(=O)(=O)c1ccc(Cl)cc1)C(=O)NNC(=S)NC (stereo not drawn) |
| 114 to 115 °C | CCCN(CCC)C(=O)Nc1nn(Cc2ccccc2)cc1C(=O)OCC |
| 184 to 186 °C | CN(C)C(=O)c1ccc(-c2ccc(N)cc2)cc1 |
| 217 to 219 °C | COCCc1sc2ncnc(N)c2c1-c1ccc(N(C(N)=O)c2ccccc2C)cc1 |
| 190 to 192 °C | CC(=O)Nc1cccc(-c2ccc3nc(-c4cccnc4N)n(-c4ccc(CNS(=O)(=O)c5cn(C)cn5)cc4)c3n2)c1 |
| 112 to 113 °C | COc1cc2ccccc2cc1OC |
| 105 °C | NSc1ccc([N+](=O)[O-])cc1C(Cl)(Cl)Cl |
| 82 to 84 °C | COc1cc(CCNC(=O)[C@@H](NC(=O)OC(C)(C)C)C(C)C)ccc1OC/C=C\c1ccc(Cl)cc1 |
| 68 to 71.5 °C | OCc1nc(-c2ccc(Cl)cc2)co1 |
| 178 to 180 °C | Cc1c(Br)cccc1N1CCn2c(cc3ccccc32)C1=O |
| 174 to 177 °C | CSc1ccc(C[C@@H](NC(=O)OCc2ccccc2)[C@H](O)C(=O)O)cc1 |
| 219 °C | COc1cc(OC)nc(-n2cnc(N)n2)n1 |
| 287 to 289 °C | Cc1cnc2[nH]cc(/C=C3\N=C(N(C)CC(C)C)NC3=O)c2c1 |
| 105 to 108 °C | CC(C)Nc1cccnc1N1CCN(C(=O)c2ccc(C(=O)NCCCn3ccnc3)cn2)CC1 |
| 104 °C | CC1(C)OC(C=Cc2cc3ccccc3s2)=CC1=O |
| 110 °C | O=C(OCc1ccccc1)N1CCOc2cc(Oc3cc(Cl)ncn3)ccc21 |
| 95 to 98 °C | CC(C)(C)CNc1cc(Cl)nc(NCC(C)(C)C)n1 |
| 113 to 115 °C | COc1ccc2nccc(CCNC(C)=O)c2c1 |
| 113 to 115 °C | C=CCOc1ccc(OC2CCCCO2)c2c1CCC(=O)N2 (stereo not drawn) |
| 195 °C | CC1CC2OC2C=CC=CC(=O)Cc2c(Cl)c(O)cc(O)c2C(=O)O1 (stereo not drawn) |
| 124 to 127 °C | COc1ccc(C(CN)C(CN)c2ccc(Cl)cc2)cc1 (stereo not drawn) |
| 76 to 77 °C | O=C(O)CCCCCCC(=NOCc1ccc(OCc2noc(-c3ccccc3)n2)cc1)c1ccccc1 |
| 78 °C | CCCCCCCNC(=O)Oc1ccc2ncccc2c1 |

| melting point | Structure (SMILES) |
| --- | --- |
| 52 to 54 °C | COC(=O)CCCCCCCCc1ccc(O)cc1 |
| 195 °C | CN(C)Cc1cc(Nc2nncc3ccccc23)cc(CN(C)C)c1O |
| 65 °C | CN1CCC(OC(c2cccc(SCCNC(=N)NC#N)c2)c2nc3ccccc3[nH]2)CC1 (stereo not drawn) |
| 119 to 122 °C | Cc1ccc(S(=O)(=O)CC(=O)C(C)(C)C)cc1 |
| 131 to 132 °C | CN1CCC(=C2c3ccccc3COc3ccc(Br)cc32)CC1 |
| 50 to 51 °C | COc1ccc2c(c1OCC#N)CCCC2 |
| 105 to 106 °C | COc1ccc(N(C(=O)CCl)c2c(Cl)cccc2Cl)cc1 |
| 130 to 131 °C | Fc1ccc(N2CCN(Cc3cn4cc(Cl)ccc4n3)CC2)cc1 |
| 180 to 182 °C | C[C@H](N)C(=O)N(CC(=O)O)C1Cc2ccccc2C1 |
| 260 to 265 °C | O=C(O)C1=Cc2cc(O)ccc2S(=O)(=O)CC1 |
| 108 to 110 °C | C[C@H]1C[C@H](C(=O)O)c2cc(Cl)c(Cl)cc2O1 (relative stereo) |
| 133 to 135 °C | CC(=O)SCCC(=O)N(C)c1nnc(-c2cccnc2)s1 |
| 295 to 296 °C | Cc1ccc(-c2[nH]c(-c3c(Cl)cccc3Cl)nc2-c2ccncc2)cc1 |
| 150 °C | CCNCCC(=O)N1c2ccccc2CCc2ccc(NC(=O)OCC)cc21 |
| 122 to 124 °C | O=C(O)c1cn(-c2cccnc2)c2c(F)c(F)c(F)cc2c1=O |
| 185 to 188 °C | CO[C@@H]1CN(c2ccc3c(=O)c(C(=O)O)cn(-c4nccs4)c3n2)C[C@H]1NCC(=O)OC(C)(C)C (relative stereo) |
| 168 to 169 °C | CCOc1ccc(C2=NN(c3ccc(C(=O)N4CCN(c5nc(-c6ccccc6)ns5)CC4)cc3)C(=O)[C@@H]3CC=CC[C@H]23)cc1OCC |
| 284 to 290 °C | CS(=O)(=O)c1ccc2ncn(/C=C/C(=O)O)c(=O)c2c1 |
| 91 to 92 °C | O=C1CCC(c2ccc(OCCBr)cc2)CC1 |
| 39 to 41 °C | O=Cc1cc(-c2ccc(F)cc2F)ccc1OC(F)(F)F |
| 226 to 228 °C | S=c1[nH]nnn1CCN1CCOCC1 |
| 201 to 202 °C | Cc1ccc(-c2c(C#N)n(C)c(=O)c3cnccc23)cc1 |
| 292 to 293 °C | NC(=O)c1ccc(COc2ccc3c(c2)CCN(C2CCN(C4CCC4)CC2)C3=O)cc1 |
| 174 to 176 °C | CCOC(=O)c1cc2cc(-c3ccc(NC(C)=O)cc3)ccc2o1 |
| 198 to 201 °C | Nc1n[nH]c2c1c1cc(Cl)c(Cl)cc1n2C1OC(CO)C(O)C1O (stereo not drawn) |

| melting point | Structure (SMILES) |
| --- | --- |
| 140 to 144 °C | O=C(C[C@H](NC(=O)C(F)(F)F)C(=O)O)c1ccc2oc3ccccc3c2c1 |
| 184 °C | COc1ccc(-c2cncc(OC3SCC(O)C(O)C3O)c2)c(OC)c1 (stereo not drawn) |
| 67 to 68 °C | O=C(NCCCl)NOCc1ccccc1 |
| 238 to 248 °C | O=C(O)c1cc([N+](=O)[O-])ccc1NCc1ccccc1 |
| 187 to 189 °C | O=C1CCC(c2c(-c3ccccc3)nn3ccccc23)=NN1 |
| 251 to 253 °C | CNC(=O)c1ccccc1Nc1nc(Nc2cc3c(cc2OC)CCOC(=O)N3C)ncc1Br |
| 111 to 112 °C | COc1cc(-c2nc(N)sc2SCC2CCCCC2)c(OC)cc1C |
| 203 to 204 °C | CC(C)(COC(=O)c1cc(Cl)c(O)c(Cl)c1)Cc1ccc(CC(C)(C)COC(=O)c2cc(Cl)c(O)c(Cl)c2)cc1 |
| 248 °C | Cn1cc(OS(C)(=O)=O)c(=O)c2ccc(S(C)=O)cc21 (stereo not drawn) |
| 134 to 136 °C | CNc1cccc(-c2ccnc3c(C(=O)c4ccccc4)cnn23)c1 |
| 151 to 152 °C | CC1(C)CC(O)CC(C)(C)N1Cc1ccccc1 |
| 152 °C | O=C(OCc1c(Cl)ccc2cc(Cl)cnc12)c1ccccc1[N+](=O)[O-] |
| 267 to 270 °C | Nc1cc(-c2c(-c3ccc(Cl)cc3)nc3ccc(N4CC5CNCC5C4)nn23)ccn1 (stereo not drawn) |
| 129 to 130 °C | CC(C)C1CCC(C(=O)N[C@H](Cc2ccccc2)C(=O)O)CC1 (stereo partly drawn) |
| 163 to 165 °C | Cn1cnc2ccc(N/C(=C3\C(=O)Nc4ccccc43)c3ccccc3)cc21 |
| 264 to 269 °C | CC(C)(C)N1CC(COc2cccc3c(S)nccc23)OC1=O (stereo not drawn) |
| 147 to 148 °C | CC1CC(N)=NN1c1cncc(Cl)n1 (stereo not drawn) |
| 168 to 171 °C | CN1CCc2cc(Cl)c(O)cc2C1C1(c2ccc(Cl)cc2)CCC1 (stereo not drawn) |
| 124 to 125 °C | CC(C)(C)N(N)C(=O)c1ccccc1 |
| 143 to 144 °C | Cc1c(F)cccc1NC(=O)c1ccc(CN2C(=O)C3(COc4cc5c(cc43)CCO5)c3ccccc32)cc1 (stereo not drawn) |
| 161 °C | Cc1ccccc1S(=O)(=O)n1c(CCCC(=O)O)cc2nc(Cl)ccc21 |
| 96 to 97 °C | Cn1ccnc1S(=O)c1ccc(Cl)cc1 (stereo not drawn) |

| Structure (SMILES) | melting point |
| --- | --- |
| CCCCCCC(C)(C)c1ccc(C2=CC(O)CCC2)c(O)c1 (stereo not drawn) | 87 to 88 °C |
| CN1Cc2c(C#CC(C)(C)O)ncn2-c2ccc(F)cc2C1=O | 163 to 164 °C |
| Cc1cccc(NC(=O)NC2CN(CC(=O)N3CC4CCC(CC4)C3)c3c(C)cccc3C(c3ccccc3F)=N2)c1 (stereo not drawn) | 246 to 247 °C |
| Cc1ccc(C(=O)N2CCC3(CC2)OCCO3)cc1 | 59 to 61 °C |
| Cc1ccc2nc(CCl)cn2c1 | 88 to 89.2 °C |
| C=Cc1[nH]c2cccc3c2c1CC1C3CC(NC(=O)N(CC)CC)CN1C (stereo not drawn) | 145 to 150 °C |
